64 molecules from patent publication US6908942B2, “6-amino-2,2-dimethyl-3,4,6-trisubstituted benzopyran derivatives and their construction by parallel synthesis on solid-phase” (Korea Research Institute of Chemical Technology, priority 2002, dated 2005) can be followed below.

Structures are written as SMILES.

This experiment has as its system lipid peroxidation induced by iron. Briefly: Inhibitory effect on iron-induced lipid peroxidation in rat brain homogenate (MDA measurement, N-methyl-2-phenylindole, Bioxytech LPO-586 Kit). It counts as biochemical. The note with it: FeCl2 400 μM, 30 min at 37° C., decrease of MDA vs DMSO control, absorption at 586 nm. The protocol: The inhibitory effect of the present compounds on lipid peroxidation induced by iron was evaluated as follows:
Rat brain was homogenized in Krebs buffer (15 mM HEPES, 10 mM glucose, 140 mM NaCl, 3.6 mM KCl, 1.5 mM CaCl2, 1.4 mM KH2PO4 and 0.7 mM MgCl, pH 7.4) and centrifuged at 12,000 rpm to obtain the supernatant serving as a raw material of lipid. To the brain homogenates, FeCl^2 was added to give a final concentration of 400 μM and allowed to stand for 30 min at 37° C. for promoting oxidation. Each of the compounds to be tested was added to give a concentration of 12.5 μM and a control group was solely added with dimethylsulfoxide (DMSO).
When iron is added to brain homogenates, oxidation is promoted to increase the amount of malondialdehyde (MDA) as lipid peroxidation product. Therefore, in this Example, the level of lipid peroxidation was evaluated according to MDA measurement method. In general MDA measurement, the test sample is reacted with TBA (2-thiobarbituric acid) and the absorbance at 530 nm was measured. However, since such process includes a boiling step, it is unsuitable for dealing with test samples in large quantity. Therefore, in this Example, N-methyl-2-phenylindole was used as a color developing reagent in place of TBA so as to avoid boiling step. […] The inhibitory effect on lipid peroxidation of test compounds was evaluated by calculating the decreased level of MDA in percentage based on the amount of MDA in the control group. For the test compounds showing more than 80% inhibitory effect, the concentration-lipid peroxidation inhibition curves were plotted with reference to the decrease rate of MDA amount based on the amount of MDA in the control group and their IC50 values was calculated through least linear regression analysis.
In addition, the representative antioxidants commercialized such as Promethazine, Trolox, Probucol and N-propyl gallate were examined in terms of 50% inhibition concentration (IC50) according to the above procedure and the results are shown in Table 4.
The IC50 is the concentration at which inhibition is half-maximal. Low readings indicate greater potency in that assay, high ones weaker potency in that assay. In the case of `CNc1ccc2c(c1)C(OCc1ccccc1)C(OCc1ccc(C(C)(C)C)cc1)C(C)(C)O2` (stereo not shown) [Compound 5-67], half-maximal inhibition (IC50) was put at 6.06 µM. The value for `CC1(C)Oc2ccc(NCc3ccc(F)cc3)cc2C(OCc2ccccc2)C1OCc1ccc(F)cc1` (stereo not shown) [Compound 5-514] was 2.39 µM.

On to `CCCCOC1c2cc(NCc3ccc(F)cc3)ccc2OC(C)(C)C1OC(=O)c1ccco1` (stereo not shown) [Compound 5-1800], for which the IC50 worked out at 3.9 µM. `CCCCOC1c2cc(NC)ccc2OC(C)(C)C1OCc1ccccc1C` (stereo not shown) [Compound 5-53] gave an IC50 of 1.8 µM. The value for `CCCCCOC1C(OCc2ccccc2)c2cc(NC)ccc2OC1(C)C` (stereo not shown) [Compound 5-77] was 2.5 µM; that for `CNc1ccc2c(c1)C(OC)C(OC(=O)C1CCCCC1)C(C)(C)O2` (stereo not shown) [Compound 5-1483] was 2.39 µM.

Molecule `Cc1ccccc1COC1C(OC(C)C)c2cc(NCc3ccc(F)cc3)ccc2OC1(C)C` (stereo not shown) [Compound 5-485] returned an IC50 of 2.66 µM. The value for `COC1c2cc(NCc3ccc(F)cc3)ccc2OC(C)(C)C1OC(=O)c1ccccc1` (stereo not shown) [Compound 5-1765] was 5.13 µM; that for `COC1c2cc(NCc3ccc(C)cc3)ccc2OC(C)(C)C1OC(=O)c1ccccc1` (stereo not shown) [Compound 5-1835] was 1.14 µM.

Take `CC(C)OC1c2cc(NCc3ccc(F)cc3)ccc2OC(C)(C)C1OCc1ccc2ccccc2c1` (stereo not shown) [Compound 5-490]: the IC50 was 2.24 µM.

Molecule `CNc1ccc2c(c1)C(OCc1ccccc1)C(OCc1ccc(Br)cc1F)C(C)(C)O2` (stereo not shown) [Compound 5-73] returned an IC50 of 2.85 µM. Then `CC(CN1c2ccccc2Sc2ccccc21)N(C)C` (stereo not shown) [Promethazine, reference compound], with 10.2 µM. Take `COC1C(OCc2ccccc2)c2cc(NCc3ccccc3)ccc2OC1(C)C` (stereo not shown) [Compound 5-300]: 1.36 µM corresponded to half-maximal inhibition (IC50). `CCNc1ccc2c(c1)C(OCC)C(OC(=O)C1CCCCC1)C(C)(C)O2` (stereo not shown) [Compound 5-1563] displayed an IC50 of 2.05 µM. Molecule `CCCCOC1c2cc(NCc3ccc(F)cc3)ccc2OC(C)(C)C1OC(=O)c1cccs1` (stereo not shown) [Compound 5-1799] returned a 50% inhibitory concentration (IC50) of 6.01 µM. On to `CCCCCOC1C(OCC)c2cc(NCc3ccc(F)cc3)ccc2OC1(C)C` (stereo not shown) [Compound 5-477], for which the IC50 came to 3.63 µM. `CCOC1c2cc(NCc3ccc(F)cc3)ccc2OC(C)(C)C1OCc1ccc(C)cc1` (stereo not shown) [Compound 5-472] came in with an IC50 of 3.9 µM. The value for `CCOC1c2cc(NCc3ccc(F)cc3)ccc2OC(C)(C)C1OC` (stereo not shown) [Compound 5-476] was 1.35 µM; that for `CNc1ccc2c(c1)C(OCc1ccccc1)C(OCc1ccc(C)cc1)C(C)(C)O2` (stereo not shown) [Compound 5-72] was 7.39 µM.

Molecule `CC1(C)Oc2ccc(NCc3ccc(F)cc3)cc2C(OCc2ccccc2)C1OC(=O)c1cccs1` (stereo not shown) [Compound 5-1809] yielded an IC50 of 6.36 µM.

`CC1(C)Oc2ccc(NCc3ccccc3)cc2C(OCCc2ccccc2)C1OCc1ccc(Br)cc1F` (stereo not shown) [Compound 5-313] gave an IC50 of 1.44 µM.

`COc1ccc(C(=O)OC2C(OC)c3cc(NCc4ccc(C)cc4)ccc3OC2(C)C)cc1` (stereo not shown) [Compound 5-1837] returned an IC50 of 4.25 µM. Against the preceding molecule, the IC50 is about 3-fold higher. Then `CC1(C)Oc2ccc(NCc3ccc(F)cc3)cc2C(OCc2ccccc2)C1OC(=O)c1ccc(F)cc1` (stereo not shown) [Compound 5-1808], with 3.97 µM.

`CNc1ccc2c(c1)C(OCCC1CCCCC1)C(OCc1ccc3ccccc3c1)C(C)(C)O2` (stereo not shown) [Compound 5-106] came in with an IC50 of 5.51 µM. Then `CNc1ccc2c(c1)C(OCc1ccccc1)C(OCc1ccccc1)C(C)(C)O2` (stereo not shown) [Compound 5-65], with 1.13 µM.

As to `CCOC1c2cc(NCc3ccc(F)cc3)ccc2OC(C)(C)C1OCc1ccc(Br)cc1F` (stereo not shown) [Compound 5-473], the IC50 came out at 2.72 µM. Compared with the last molecule, the IC50 is about 2.4-fold higher. Regarding `CC1(C)Oc2ccc(NCc3ccccc3)cc2C(OCCc2ccccc2)C1OCc1ccccc1Cl` (stereo not shown) [Compound 5-310], half-maximal inhibition (IC50) was put at 1.1 µM. The value for `C#CCOC1C(OCc2ccccc2)c2cc(NC)ccc2OC1(C)C` (stereo not shown) [Compound 5-80] was 1.08 µM; that for `C=CCOC1C(OCCCC)c2cc(NC)ccc2OC1(C)C` (stereo not shown) [Compound 5-63] was 2.46 µM; that for `CCCCOC1c2cc(NC)ccc2OC(C)(C)C1OCc1ccccc1` (stereo not shown) [Compound 5-49] was 2.85 µM.

On to `CC(C)(C)CC(=O)OC1C(OCc2ccccc2)c2cc(NCc3ccc(F)cc3)ccc2OC1(C)C` (stereo not shown) [Compound 5-1802], for which the IC50 was determined as 4.12 µM. The IC50 values of the last two molecules are within 1.5-fold of each other. Then `C/C=C/COC1C(OCCCC)c2cc(NCc3ccc(F)cc3)ccc2OC1(C)C` (stereo not shown) [Compound 5-510], with 9.45 µM; and `CC1(C)Oc2ccc(NCc3ccccc3)cc2C(OCc2ccccc2)C1OCc1cccc(Cl)c1` (stereo not shown) [Compound 5-295], with 1.29 µM. For the molecule `CC1(C)Oc2ccc(NCc3ccccc3)cc2C(OCCc2ccccc2)C1OCc1ccc(F)cc1` (stereo not shown) [Compound 5-306], the IC50 came out at 4.12 µM. Then `CCCCOC1c2cc(NC)ccc2OC(C)(C)C1OCc1ccc(Br)cc1F` (stereo not shown) [Compound 5-57], with 4.37 µM; and `CCCOC(=O)c1cc(O)c(O)c(O)c1` [N-propyl gallate, reference compound], with 25 µM; and `CC1(C)Oc2ccc(NCc3ccc(F)cc3)cc2C(OCc2ccccc2)C1OC(=O)c1ccco1` (stereo not shown) [Compound 5-1840], with 1.03 µM. `CNc1ccc2c(c1)C(OCc1ccccc1)C(OCc1ccc3ccccc3c1)C(C)(C)O2` (stereo not shown) [Compound 5-74] showed an IC50 of 3.6 µM. The value for `COC1c2cc(NCc3ccc(C)cc3)ccc2OC(C)(C)C1OC(=O)c1ccc(C)cc1` (stereo not shown) [Compound 5-1836] was 1.16 µM. Then `CCOC1c2cc(NCc3ccc(F)cc3)ccc2OC(C)(C)C1OCc1ccc(C(C)(C)C)cc1` (stereo not shown) [Compound 5-467], with 3.6 µM; and `CNc1ccc2c(c1)C(OCc1ccccc1)C(OCc1ccccc1C)C(C)(C)O2` (stereo not shown) [Compound 5-69], with 1.42 µM; and `CC1(C)Oc2ccc(NCc3ccccc3)cc2C(OCCc2ccccc2)C1OCc1cccc(F)c1` (stereo not shown) [Compound 5-308], with 4.75 µM.

Turning to `CCCCOC1c2cc(NC)ccc2OC(C)(C)C1OC(=O)c1ccco1` (stereo not shown) [Compound 5-1520], the IC50 was 3.1 µM.

Turning to `CC1(C)Oc2ccc(NCc3ccccc3)cc2C(OCCc2ccccc2)C1OCc1ccccc1Cl` (stereo not shown) [Compound 5-311], the IC50 is 1.19 µM. The value for `CCCCOC1c2cc(NC)ccc2OC(C)(C)C1OC(=O)c1ccccc1` (stereo not shown) [Compound 5-1515] was 2.23 µM. Regarding `C/C=C/COC1C(OCCc2ccccc2)c2cc(NCc3ccccc3)ccc2OC1(C)C` (stereo not shown) [Compound 5-318], inhibition was half-maximal at 5.27 µM (IC50). The value for `COC1c2cc(NCc3ccc(C)cc3)ccc2OC(C)(C)C1OC(=O)c1cccs1` (stereo not shown) [Compound 5-1839] was 1.07 µM; that for `CCOC1c2cc(NCc3ccc(F)cc3)ccc2OC(C)(C)C1OCc1ccccc1Cl` (stereo not shown) [Compound 5-470] was 4.15 µM; that for `CNc1ccc2c(c1)C(OCCC1CCCCC1)C(OCc1cccc(F)c1)C(C)(C)O2` (stereo not shown) [Compound 5-100] was 3.89 µM. Then `CCCCOC1c2cc(NC)ccc2OC(C)(C)C1OCc1ccc(F)cc1` (stereo not shown) [Compound 5-50], with 4.9 µM. As for `COC1c2cc(NCc3ccc(F)cc3)ccc2OC(C)(C)C1OC(=O)c1cccs1` (stereo not shown) [Compound 5-1769], inhibition was half-maximal at 5.97 µM (IC50).

Molecule `CC1(C)Oc2ccc(NCc3ccccc3)cc2C(OCc2ccccc2)C1OCc1ccc(F)cc1` (stereo not shown) [Compound 5-290] showed a half-maximal inhibitory concentration (IC50) of 3.02 µM. Regarding `CNc1ccc2c(c1)C(OC)C(OC(=O)CC(C)(C)C)C(C)(C)O2` (stereo not shown) [Compound 5-1482], 5.27 µM corresponded to half-maximal inhibition (IC50). Regarding `COC1c2cc(NCc3ccc(C)cc3)ccc2OC(C)(C)C1OC(=O)C=C(C)C` (stereo not shown) [Compound 5-1834], inhibition was half-maximal at 1.29 µM (IC50).

`C=CCOC1C(OCc2ccccc2)c2cc(NC)ccc2OC1(C)C` (stereo not shown) [Compound 5-79]: the IC50 was 0.79 µM. Then `CC(C)(Sc1cc(C(C)(C)C)c(O)c(C(C)(C)C)c1)Sc1cc(C(C)(C)C)c(O)c(C(C)(C)C)c1` [Probucol, reference compound], with 18.2 µM; and `CCOC1c2cc(NCc3ccc(F)cc3)ccc2OC(C)(C)C1OCc1ccc(F)cc1` (stereo not shown) [Compound 5-466], with 1.2 µM. Molecule `Cc1ccc(COC2C(OCc3ccccc3)c3cc(NCc4ccccc4)ccc3OC2(C)C)cc1` (stereo not shown) [Compound 5-296] registered an IC50 of 5.85 µM. Compared with the last molecule, the IC50 is about 4.9-fold higher.

The molecule `CNc1ccc2c(c1)C(OCCC1CCCCC1)C(OCc1ccccc1C)C(C)(C)O2` (stereo not shown) [Compound 5-101] showed an IC50 of 6.03 µM. As for `CC(C)OC1c2cc(NCc3ccc(F)cc3)ccc2OC(C)(C)C1OCc1ccccc1Cl` (stereo not shown) [Compound 5-486], the IC50 was 0.91 µM. The value for `COC1c2cc(NCc3ccc(C)cc3)ccc2OC(C)(C)C1OCc1ccc(F)cc1` (stereo not shown) [Compound 5-562] was 6.47 µM. `CC1(C)Oc2ccc(NCc3ccccc3)cc2C(OCc2ccccc2)C1OCc1cccc(F)c1` (stereo not shown) [Compound 5-292] gave an IC50 of 3.25 µM. The value for `CNc1ccc2c(c1)C(OCCC1CCCCC1)C(OCc1ccccc1)C(C)(C)O2` (stereo not shown) [Compound 5-97] was 5.34 µM. As for `CCNc1ccc2c(c1)C(OC)C(OC(=O)c1ccco1)C(C)(C)O2` (stereo not shown) [Compound 5-1560], the IC50 turned out to be 2.31 µM.
